This note sets out measurements from patent publication US20060223996A1, “IL-12 modulatory compounds” (Synta Pharmaceuticals Corp., priority 2004, published 2006).

This assay has as its system IL-12. In words: Human in vitro assay: inhibition of IL-12 production in IFNγ/LPS- or IFNγ/SAC-stimulated human PBMC or THP-1 cells (ELISA). Format: cell-based. To be noted: read-out: IC50 Range (representative in vitro IC50 data). In a few lines: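 Sandwich ELISA for IL-12 (p70, p40) on supernatants collected 18 h after stimulation gave IC50 values; MTS monitored viability. THP-1 cells: IFNγ 100 U/mL priming 22 h, SAC 0.025%. PBMC: IFNγ 30 U/mL for 22 h plus LPS 1 μg/mL, or IFNγ 100 U/mL plus SAC 0.01%. Final DMSO 0.25%.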
For orientation: In an ELISA, binding on a coated surface is turned into a signal by an enzyme label.

A value given as a limit tells only on which side of the number the result lay.

On to `CCN(CC)C(=O)COc1cc(C(=O)Nc2ccc3[nH]c(C)c(C)c3c2)nc(N2CCOCC2)n1` [Compound 256, 6-(2-(diethylamino)-2-oxoethoxy)-N-(2,3-dimethyl-1H-indol-5-yl)-2-morpholinopyrimidine-4-carboxamide], for which the IC50 was less than 1 µM.
To `CC(=O)N1CCN(c2cc(C(=O)Nc3ccc4[nH]c(C)c(C)c4c3)nc(N3CCOCC3)n2)CC1` [Compound 257, 6-(4-acetylpiperazin-1-yl)-N-(2,3-dimethyl-1H-indol-5-yl)-2-morpholinopyrimidine-4-carboxamide] belongs less than 1 µM.
As for `COCCN(CCOC)c1cc(C(=O)Nc2ccc3[nH]c(C)c(C)c3c2)nc(N2CCOCC2)n1` [Compound 258, 6-(bis(2-methoxyethyl)amino)-N-(2,3-dimethyl-1H-indol-5-yl)-2-morpholinopyrimidine-4-carboxamide], the IC50 is less than 1 µM.
To `Cc1[nH]c2ccc(NC(=O)c3cc(CN4CCOCC4)nc(N4CCOCC4)n3)cc2c1C` [Compound 259, N-(2,3-dimethyl-1H-indol-5-yl)-2-morpholino-6-(morpholinomethyl)pyrimidine-4-carboxamide] belongs less than 1 µM; to `CC(=O)N[C@H]1CCN(c2cc(C(=O)Nc3ccc4[nH]cc(C)c4c3)nc(N3CCOCC3)n2)C1` [Compound 260, (S)-6-(3-acetamidopyrrolidin-1-yl)-N-(3-methyl-1H-indol-5-yl)-2-morpholinopyrimidine-4-carboxamide], less than 1 µM.
To `CC(=O)N1CCN(c2cc(C(=O)Nc3ccc4[nH]cc(C)c4c3)nc(N3CCOCC3)n2)CC1` [Compound 261, 6-(4-acetylpiperazin-1-yl)-N-(3-methyl-1H-indol-5-yl)-2-morpholinopyrimidine-4-carboxamide] belongs less than 1 µM; to `CC(=O)N1CCN(c2cc(C(=O)Nc3ccc4[nH]c5c(c4c3)CCCC5)nc(N3CCOCC3)n2)CC1` [Compound 262, 6-(4-acetylpiperazin-1-yl)-2-morpholino-N-(2,3,4,9-tetrahydro-1H-carbazol-6-yl)pyrimidine-4-carboxamide], less than 1 µM; to `Cc1cc(NC(=O)Nc2ccc3[nH]c(C)c(C)c3c2)nc(N2CCOCC2)n1` [Compound 263, 1-(2,3-dimethyl-1H-indol-5-yl)-3-(6-methyl-2-morpholinopyrimidin-4-yl)urea], less than 1 µM.
The value for `CC(=O)N1CCN(c2cc(NC(=O)Nc3ccc4[nH]c(C)c(C)c4c3)nc(N3CCOCC3)n2)CC1` [Compound 264, 1-(6-(4-acetylpiperazin-1-yl)-2-morpholinopyrimidin-4-yl)-3-(2,3-dimethyl-1H-indol-5-yl)urea] was less than 1 µM; that for `COCCN(C)c1cc(NC(=O)Nc2ccc3[nH]c(C)c(C)c3c2)nc(N2CCOCC2)n1` [Compound 265, 1-(2,3-dimethyl-1H-indol-5-yl)-3-(6-((2-methoxyethyl)(methyl)amino)-2-morpholinopyrimidin-4-yl)urea] was less than 1 µM.
As to `CCc1c(C)[nH]c2ccc(NC(=O)Nc3cc(N4CCN(C(C)=O)CC4)nc(N4CCOCC4)n3)cc12` [Compound 266, 1-(6-(4-acetylpiperazin-1-yl)-2-morpholinopyrimidin-4-yl)-3-(3-ethyl-2-methyl-1H-indol-5-yl)urea], the IC50 was less than 1 µM.
The value for `CCc1c(C)[nH]c2ccc(NC(=O)Nc3cc(C)nc(N4CCOCC4)n3)cc12` [Compound 267, 1-(3-ethyl-2-methyl-1H-indol-5-yl)-3-(6-methyl-2-morpholinopyrimidin-4-yl)urea] was less than 1 µM; that for `Cc1[nH]c2ccc(NC(=O)Nc3cc(N4CCN(c5ccccn5)CC4)nc(N4CCOCC4)n3)cc2c1C` [Compound 268, 1-(2,3-dimethyl-1H-indol-5-yl)-3-(2-morpholino-6-(4-(pyridin-2-yl)piperazin-1-yl)pyrimidin-4-yl)urea] was less than 1 µM.
The value for `CCc1c(C)[nH]c2ccc(NC(=O)Nc3cc(N4CCN(c5ccccn5)CC4)nc(N4CCOCC4)n3)cc12` [Compound 269, 1-(3-ethyl-2-methyl-1H-indol-5-yl)-3-(2-morpholino-6-(4-(pyridin-2-yl)piperazin-1-yl)pyrimidin-4-yl)urea] was less than 1 µM.
The value for `CCc1c(C)[nH]c2ccc(NC(=O)Nc3cc(NCCN4CCOCC4)nc(N4CCOCC4)n3)cc12` [Compound 270, 1-(3-ethyl-2-methyl-1H-indol-5-yl)-3-(2-morpholino-6-(2-morpholinoethylamino)pyrimidin-4-yl)urea] was less than 1 µM.
On to `Cc1ccc([N+](=O)[O-])c(NC(=O)c2cc(OCCN3CCOCC3)nc(N3CCOCC3)n2)c1` [Compound 271, 2-Morpholin-4-yl-6-(2-morpholin-4-yl-ethoxy)-pyrimidine-4-carboxylic acid (5-methyl-2-nitro-phenyl)-amide], for which the IC50 was less than 1 µM.
The value for `Cc1ccc(N)c(NC(=O)c2cc(OCCN3CCOCC3)nc(N3CCOCC3)n2)c1` [Compound 272, 2-Morpholin-4-yl-6-(2-morpholin-4-yl-ethoxy)-pyrimidine-4-carboxylic acid (2-amino-5-methyl-phenyl)-amide] was no less than 1 µM.
With `CN1C(=O)c2ccc(NC(=O)c3cc(OCCN4CCOCC4)nc(N4CCOCC4)n3)cc2C1=O` [Compound 274, 2-Morpholin-4-yl-6-(2-morpholin-4-yl-ethoxy)-pyrimidine-4-carboxylic acid (2-methyl-1,3-dioxo-2,3-dihydro-1H-isoindol-5-yl)-amide], the IC50 is no less than 1 µM.
The value for `O=C(Nc1ccc2cc[nH]c2c1)c1cc(OCCN2CCOCC2)nc(N2CCOCC2)n1` [Compound 275, 2-Morpholin-4-yl-6-(2-morpholin-4-yl-ethoxy)-pyrimidine-4-carboxylic acid (1H-indol-6-yl)-amide] was less than 1 µM; that for `O=C(Nc1cccc([N+](=O)[O-])c1)c1cc(OCCN2CCOCC2)nc(N2CCOCC2)n1` [Compound 276, 2-Morpholin-4-yl-6-(2-morpholin-4-yl-ethoxy)-pyrimidine-4-carboxylic acid (3-nitro-phenyl)-amide] was no less than 1 µM.
To `Nc1cccc(NC(=O)c2cc(OCCN3CCOCC3)nc(N3CCOCC3)n2)c1` [Compound 277, 2-Morpholin-4-yl-6-(2-morpholin-4-yl-ethoxy)-pyrimidine-4-carboxylic acid (3-amino-phenyl)-amide] belongs less than 1 µM; to `O=C(Nc1cccc(N2CCCC2)c1)c1cc(OCCN2CCOCC2)nc(N2CCOCC2)n1` [Compound 278, 2-Morpholin-4-yl-6-(2-morpholin-4-yl-ethoxy)-pyrimidine-4-carboxylic acid (3-pyrrolidin-1-yl-phenyl)-amide], less than 1 µM; to `COc1cccc(NC(=O)c2cc(OCCN3CCOCC3)nc(N3CCOCC3)n2)c1` [Compound 279, 2-Morpholin-4-yl-6-(2-morpholin-4-yl-ethoxy)-pyrimidine-4-carboxylic acid (3-methoxy-phenyl)-amide], no less than 1 µM.
The value for `CNc1cccc(NC(=O)c2cc(OCCN3CCOCC3)nc(N3CCOCC3)n2)c1` [Compound 280, 2-Morpholin-4-yl-6-(2-morpholin-4-yl-ethoxy)-pyrimidine-4-carboxylic acid (3-methylamino-phenyl)-amide] was less than 1 µM; that for `Cc1[nH]c2ccc(NC(=O)c3cc(N4CCOCC4)nc(N4C[C@@H](C)O[C@@H](C)C4)n3)cc2c1C` [Compound 281, 2-(2,6-Dimethyl-morpholin-4-yl)-6-morpholin-4-yl-pyrimidine-4-carboxylic acid (2,3-dimethyl-1H-indol-5-yl)-amide] was less than 1 µM.
`Cc1cc(C)cc(NC(=O)c2cc(OCCN3CCOCC3)nc(N3CCOCC3)n2)c1` [Compound 282, 2-Morpholin-4-yl-6-(2-morpholin-4-yl-ethoxy)-pyrimidine-4-carboxylic acid (3,5-dimethyl-phenyl)-amide]: the half-inhibitory concentration (IC50) is less than 1 µM.
To `Cc1c(C)n(C)c2ccc(NC(=O)c3cc(N4CCOCC4)nc(N4CCOCC4)n3)cc12` [Compound 283, 2,6-Di-morpholin-4-yl-pyrimidine-4-carboxylic acid (1,2,3-trimethyl-1H-indol-5-yl)-amide] belongs less than 1 µM.
The value for `O=C(Nc1ccc(Nc2ccccc2)cc1)c1cc(OCCN2CCOCC2)nc(N2CCOCC2)n1` [Compound 284, 2-Morpholin-4-yl-6-(2-morpholin-4-yl-ethoxy)-pyrimidine-4-carboxylic acid (4-phenylamino-phenyl)-amide] was no less than 1 µM; that for `O=C(Nc1cccc(-n2cccc2)c1)c1cc(OCCN2CCOCC2)nc(N2CCOCC2)n1` [Compound 285, 2-Morpholin-4-yl-6-(2-morpholin-4-yl-ethoxy)-pyrimidine-4-carboxylic acid (3-pyrrol-1-yl-phenyl)-amide] was less than 1 µM; that for `CNCCOc1cc(C(=O)Nc2ccc3c(c2)c(C)c(C)n3C)nc(N2CCOCC2)n1` [Compound 286, 6-(2-Methylamino-ethoxy)-2-morpholin-4-yl-pyrimidine-4-carboxylic acid (1,2,3-trimethyl-1H-indol-5-yl)-amide] was less than 1 µM.
To `O=C(Nc1cccc(Cl)c1)c1cc(OCCN2CCOCC2)nc(N2CCOCC2)n1` [Compound 287, 2-Morpholin-4-yl-6-(2-morpholin-4-yl-ethoxy)-pyrimidine-4-carboxylic acid (3-chloro-phenyl)-amide] belongs no less than 1 µM; to `Cc1cc(NC(=O)c2cc(OCCN3CCOCC3)nc(N3CCOCC3)n2)ccc1N(C)C` [Compound 288, 2-Morpholin-4-yl-6-(2-morpholin-4-yl-ethoxy)-pyrimidine-4-carboxylic acid (4-dimethylamino-3-methyl-phenyl)-amide], no less than 1 µM; to `CNc1ccc(NC(=O)c2cc(OCCN3CCOCC3)nc(N3CCOCC3)n2)cc1C` [Compound 289, 2-Morpholin-4-yl-6-(2-morpholin-4-yl-ethoxy)-pyrimidine-4-carboxylic acid (3-methyl-4-methylamino-phenyl)-amide], no less than 1 µM.

A word on the IC50: it is the midpoint of a concentration-inhibition curve.
